From publication PMC9127186, “Molecular Basis Underlying Hepatobiliary and Renal Excretion of Phenolic Acids of Salvia miltiorrhiza Roots (Danshen)” (Frontiers in Pharmacology, 2022)

Tests used:
[1] = target: T1, human OCT1 (Homo sapiens, UniProt O15245); conditions: 10 min, 100 μM
T1 sequence (O15245 1-554): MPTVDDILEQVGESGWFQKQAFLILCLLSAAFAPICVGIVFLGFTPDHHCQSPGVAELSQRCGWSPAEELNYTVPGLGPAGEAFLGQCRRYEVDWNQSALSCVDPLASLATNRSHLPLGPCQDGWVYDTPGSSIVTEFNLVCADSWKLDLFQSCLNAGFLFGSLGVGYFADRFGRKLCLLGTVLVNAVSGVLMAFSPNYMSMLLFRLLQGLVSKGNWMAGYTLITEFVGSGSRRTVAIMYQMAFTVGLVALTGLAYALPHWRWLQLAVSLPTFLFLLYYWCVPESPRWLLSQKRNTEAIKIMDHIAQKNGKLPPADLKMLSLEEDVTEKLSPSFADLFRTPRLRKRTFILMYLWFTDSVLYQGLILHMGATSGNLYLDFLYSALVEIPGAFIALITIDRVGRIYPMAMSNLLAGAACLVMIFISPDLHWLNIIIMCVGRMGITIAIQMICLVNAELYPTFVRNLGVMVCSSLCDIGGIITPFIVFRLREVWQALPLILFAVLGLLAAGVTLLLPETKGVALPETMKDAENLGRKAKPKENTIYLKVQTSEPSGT

[2] = target: T2, rat Ntcp (Rattus norvegicus, UniProt P26435); conditions: 10 min, 100 μM
T2 sequence (P26435 1-362): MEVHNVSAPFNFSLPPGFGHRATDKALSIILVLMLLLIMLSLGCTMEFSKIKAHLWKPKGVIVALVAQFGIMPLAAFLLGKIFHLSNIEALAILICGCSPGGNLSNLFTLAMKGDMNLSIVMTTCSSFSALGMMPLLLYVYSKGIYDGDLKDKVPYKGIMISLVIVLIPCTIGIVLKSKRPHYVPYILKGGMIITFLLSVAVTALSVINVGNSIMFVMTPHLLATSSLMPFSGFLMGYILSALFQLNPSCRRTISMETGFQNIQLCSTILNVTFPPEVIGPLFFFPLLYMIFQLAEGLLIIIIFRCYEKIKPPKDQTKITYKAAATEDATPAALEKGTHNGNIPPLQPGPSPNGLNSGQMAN

[3] = target: T3, human OCT2 (Homo sapiens, UniProt O15244); conditions: 10 min, 100 μM
T3 sequence (O15244 1-555): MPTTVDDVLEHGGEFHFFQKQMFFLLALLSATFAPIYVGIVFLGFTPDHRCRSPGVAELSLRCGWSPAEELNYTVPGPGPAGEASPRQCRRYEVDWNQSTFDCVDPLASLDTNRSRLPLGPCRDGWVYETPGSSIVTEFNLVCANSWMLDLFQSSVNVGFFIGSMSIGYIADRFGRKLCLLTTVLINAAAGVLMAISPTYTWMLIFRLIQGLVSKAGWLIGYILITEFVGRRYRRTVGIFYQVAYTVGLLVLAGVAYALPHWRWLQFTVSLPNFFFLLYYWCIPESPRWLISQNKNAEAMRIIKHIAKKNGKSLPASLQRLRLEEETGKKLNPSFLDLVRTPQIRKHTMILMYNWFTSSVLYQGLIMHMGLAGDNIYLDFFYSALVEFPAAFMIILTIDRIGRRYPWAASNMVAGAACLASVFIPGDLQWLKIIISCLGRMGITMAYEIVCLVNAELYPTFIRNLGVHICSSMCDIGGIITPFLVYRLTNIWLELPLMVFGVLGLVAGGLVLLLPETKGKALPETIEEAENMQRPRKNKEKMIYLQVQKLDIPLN

[4] = target: T4, human PEPT1 (Homo sapiens, UniProt P46059); conditions: 10 min, 100 μM, pH 6
T4 sequence (P46059 1-708): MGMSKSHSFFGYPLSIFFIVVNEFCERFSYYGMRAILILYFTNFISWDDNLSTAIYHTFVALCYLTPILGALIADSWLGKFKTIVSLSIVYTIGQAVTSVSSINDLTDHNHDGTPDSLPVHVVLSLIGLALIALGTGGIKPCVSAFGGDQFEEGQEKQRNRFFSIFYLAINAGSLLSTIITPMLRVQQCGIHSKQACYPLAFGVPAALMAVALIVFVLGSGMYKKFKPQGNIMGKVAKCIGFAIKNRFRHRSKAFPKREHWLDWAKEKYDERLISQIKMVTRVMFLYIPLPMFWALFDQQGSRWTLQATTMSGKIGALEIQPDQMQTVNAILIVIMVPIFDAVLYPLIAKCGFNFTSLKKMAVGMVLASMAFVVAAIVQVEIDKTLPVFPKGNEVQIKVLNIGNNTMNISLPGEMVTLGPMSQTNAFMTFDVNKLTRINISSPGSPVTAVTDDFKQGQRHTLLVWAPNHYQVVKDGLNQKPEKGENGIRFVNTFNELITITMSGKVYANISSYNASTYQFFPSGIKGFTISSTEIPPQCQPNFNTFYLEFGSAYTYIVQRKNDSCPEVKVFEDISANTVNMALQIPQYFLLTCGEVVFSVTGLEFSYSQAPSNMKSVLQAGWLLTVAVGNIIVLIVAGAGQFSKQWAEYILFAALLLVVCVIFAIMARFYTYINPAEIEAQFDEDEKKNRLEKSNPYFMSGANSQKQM

[5] = target: T5, rat Oct2 (Rattus norvegicus, UniProt Q9R0W2); conditions: 10 min, 100 μM
T5 sequence (Q9R0W2 1-555): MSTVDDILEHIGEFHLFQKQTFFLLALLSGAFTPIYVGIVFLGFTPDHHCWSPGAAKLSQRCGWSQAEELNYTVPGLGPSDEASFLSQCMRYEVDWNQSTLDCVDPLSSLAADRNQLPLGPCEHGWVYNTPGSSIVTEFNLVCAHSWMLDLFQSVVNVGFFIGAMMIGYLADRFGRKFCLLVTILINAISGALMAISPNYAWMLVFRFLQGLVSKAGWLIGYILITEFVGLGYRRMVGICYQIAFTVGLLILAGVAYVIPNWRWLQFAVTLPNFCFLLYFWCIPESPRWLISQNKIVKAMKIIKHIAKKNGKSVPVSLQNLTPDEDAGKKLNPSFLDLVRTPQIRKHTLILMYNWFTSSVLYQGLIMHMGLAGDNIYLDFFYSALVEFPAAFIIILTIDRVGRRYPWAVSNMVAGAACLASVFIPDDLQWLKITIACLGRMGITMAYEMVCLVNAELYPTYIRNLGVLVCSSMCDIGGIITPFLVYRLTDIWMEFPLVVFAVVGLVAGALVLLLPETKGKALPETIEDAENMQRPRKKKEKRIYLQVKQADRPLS

Row | SMILES | TransportTC/TransportMC ratio (net transport ratio) [1] | TransportTC/TransportMC ratio (net transport ratio) [2] | TransportTC/TransportMC ratio (net transport ratio) [3] | TransportTC/TransportMC ratio (net transport ratio) [4] | TransportTC/TransportMC ratio (net transport ratio) [5]
1 | O=C(/C=C/c1ccc(O)c(O)c1)O[C@H](Cc1ccc(O)c(O)c1)C(=O)O [Rosmarinic acid, rosmarinic acid] | 1.46 ± 0.57 | 1.68 ± 0.25 | 0.85 ± 0.29 | 1.42 ± 0.53 | 0.75 ± 0.32
2 | O=C(/C=C/c1ccc(O)c(O)c1/C=C/c1ccc(O)c(O)c1)O[C@H](Cc1ccc(O)c(O)c1)C(=O)O [Salvianolic acid A, salvianolic acid A] | 1.04 ± 0.32 | 0.84 ± 0.13 | 0.93 ± 0.32 | 1.45 ± 0.27 | 0.94 ± 0.33
